Assays:
[1] = system: RAW264.7; assay: Antiinflammatory activity in mouse RAW264.7 cells assessed as inhibition of LPS-induced TNF-alpha level at 1 uM incubated for 24 hrs prior to LPS challenge measured after 3 hrs by qRT-PCR analysis relative to control; type: functional
[2] = system: RAW264.7; assay: Antiinflammatory activity in mouse RAW264.7 cells assessed as inhibition of LPS-induced IL-1beta level at 1 uM incubated for 24 hrs prior to LPS challenge measured after 3 hrs by qRT-PCR analysis relative to control; type: functional
[3] = system: RAW264.7; assay: Antiinflammatory activity in mouse RAW264.7 cells assessed as inhibition of LPS-induced IL-6 level at 1 uM incubated for 24 hrs prior to LPS challenge measured after 3 hrs by qRT-PCR analysis relative to control; type: functional
[4] = system: RAW264.7; assay: Cytotoxicity against mouse RAW264.7 cells; type: cell-based
[5] = system: RAW264.7; assay: Antiinflammatory activity in mouse RAW264.7 cells assessed as inhibition of LPS-induced IL-1beta level at 5 uM incubated for 24 hrs prior to LPS challenge measured after 3 hrs by qRT-PCR analysis relative to control; type: functional
[6] = system: RAW264.7; assay: Antiinflammatory activity in mouse RAW264.7 cells assessed as inhibition of LPS-induced TNF-alpha level at 5 uM incubated for 24 hrs prior to LPS challenge measured after 3 hrs by qRT-PCR analysis relative to control; type: functional
[7] = system: RAW264.7; assay: Antiinflammatory activity in mouse RAW264.7 cells assessed as inhibition of LPS-induced IL-6 level at 5 uM incubated for 24 hrs prior to LPS challenge measured after 3 hrs by qRT-PCR analysis relative to control; type: functional
[8] = system: RAW264.7; assay: Antiinflammatory activity in mouse RAW264.7 cells assessed as inhibition of LPS-induced IL-6 level at 10 uM incubated for 24 hrs prior to LPS challenge measured after 3 hrs by qRT-PCR analysis relative to control; type: functional
[9] = system: RAW264.7; assay: Antiinflammatory activity in mouse RAW264.7 cells assessed as inhibition of LPS-induced TNF-alpha level at 10 uM incubated for 24 hrs prior to LPS challenge measured after 3 hrs by qRT-PCR analysis relative to control; type: functional
[10] = system: RAW264.7; assay: Antiinflammatory activity in mouse RAW264.7 cells assessed as inhibition of LPS-induced IL-1beta level at 10 uM incubated for 24 hrs prior to LPS challenge measured after 3 hrs by qRT-PCR analysis relative to control; type: functional

Row | Compound | inhibition at 1 µM [1] [%] | inhibition at 1 µM [2] [%] | inhibition at 1 µM [3] [%] | Activity [4] | inhibition at 5 µM [5] [%] | inhibition at 5 µM [6] [%] | inhibition at 5 µM [7] [%] | inhibition at 10 µM [8] [%] | inhibition at 10 µM [9] [%] | inhibition at 10 µM [10] [%]
1 | CC1=C(CCC(C)C(=O)O)C(=O)c2ccccc2C1=O (stereo not drawn) | 17.3 | 23.1 | 20.6 | Non-toxic | – | – | – | – | – | –
2 | CC1=C(C/C=C(\C)CCC(=O)O)C(=O)c2ccccc2C1=O | – | – | – | Non-toxic | 28.3 | 25.2 | 29.8 | – | – | –
3 | CC1=C(C/C=C(\C)CC/C=C(\C)CCC(=O)O)C(=O)c2ccccc2C1=O | – | – | – | Non-toxic | 51.5 | 26.3 | 52.1 | – | – | –
4 | CC1=C(C/C=C(\C)CC/C=C(\C)C(=O)O)C(=O)c2ccccc2C1=O | 7.7 | 43.5 | 47.7 | Non-toxic | – | – | – | – | – | –
5 | CC1=C(C/C=C(\C)CC/C=C(\C)CC/C=C(\C)CCC(=O)O)C(=O)c2ccccc2C1=O | – | – | – | Non-toxic | – | – | – | 10.6 | 2.2 | 21.3
6 | CC1=C(C/C=C(\C)C(=O)O)C(=O)c2ccccc2C1=O | – | – | – | Non-toxic | – | – | – | 34.4 | 20.8 | 40.6
7 | CC1=C(C/C=C(\C)CC/C=C(\C)CC/C=C(\C)C(=O)O)C(=O)c2ccccc2C1=O | – | – | – | Non-toxic | – | – | – | 46.3 | 24.4 | 37

Source: ChEMBL document CHEMBL3400021, “Systematic synthesis and anti-inflammatory activity of ω-carboxylated menaquinone derivatives--Investigations on identified and putative vitamin K₂ metabolites” (Bioorg Med Chem, 2015)
